In patent publication US20250243171A1, “QUINAZOLINE COMPOUNDS FOR TREATMENT OF DISEASE” (Arthrosi Therapeutics, Inc., priority 2021, published 2025):

Columns and labels:
Assay in all cases: EC50 assay: Ba/F3 stable cell proliferation (CCK-8, 72 h)
Assay type in all cases: cell-based
[1] = target: T1, Ba/F3 stable cells (Homo sapiens, UniProt P00533, INS763FQEA, cells depend on it); conditions: Ba/F3-EGFR A763-Y764insFQEA cells
T1 construct: EC50 Ba/F3-EGFR A763-Y764insFQEA; other: Ba/F3-EGFR A763-Y764insFQEA cells, 72 h, CCK-8
Method in brief: (§1)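 Ba/F3 stable cells were seeded at 4,000 cells/90 μL/well in 96-well plates and held 2 h at 37° C. in 5% CO2, then given 10 μL of serially titrated compound (0.1% DMSO final). After 72 h at 37° C., CCK-8 reagent was added for 4 hours and absorbance read at 450 nm to derive EC50.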

[2] = target: T2, Ba/F3 stable cells (Homo sapiens, UniProt P00533, T790M/L858R, cells depend on it); conditions: Ba/F3-EGFR L858R-T790M cells
T2 construct: EC50 Ba/F3-EGFR L858R-T790M; other: Ba/F3-EGFR L858R-T790M cells, 72 h, CCK-8
Method in brief: as §1

[3] = target: T3, Ba/F3 stable cells (Homo sapiens, UniProt P00533, DUP767-769, cells depend on it); conditions: Ba/F3-EGFR V769-D770insASV cells
T3 construct: EC50 Ba/F3-EGFR V769-D770insASV; other: Ba/F3-EGFR V769-D770insASV cells, 72 h, CCK-8
Method in brief: as §1

[4] = target: T4, Ba/F3 stable cells (Homo sapiens, UniProt P00533, DUP768-770, cells depend on it); conditions: Ba/F3-EGFR D770-N771insSVD cells
T4 construct: EC50 Ba/F3-EGFR D770-N771insSVD; other: Ba/F3-EGFR D770-N771insSVD cells, 72 h, CCK-8
Method in brief: as §1

[5] = target: T5, Ba/F3 stable cells (Homo sapiens, UniProt P04626, DUP772-775, cells depend on it); conditions: Ba/F3-HER2 A775-G776insYVMA cells
T5 construct: EC50 Ba/F3-HER2 A775-G776insYVMA; other: Ba/F3-HER2 A775-G776insYVMA cells, 72 h, CCK-8
Method in brief: as §1

[6] = target: T6, Ba/F3 stable cells (Homo sapiens, UniProt P00533, DUP771-773, cells depend on it); conditions: Ba/F3-EGFR H773-V774insNPH cells
T6 construct: EC50 Ba/F3-EGFR H773-V774insNPH; other: Ba/F3-EGFR H773-V774insNPH cells, 72 h, CCK-8
Method in brief: as §1

T3 sequence (P00533 with tags, fused parts or gaps DUP767-769): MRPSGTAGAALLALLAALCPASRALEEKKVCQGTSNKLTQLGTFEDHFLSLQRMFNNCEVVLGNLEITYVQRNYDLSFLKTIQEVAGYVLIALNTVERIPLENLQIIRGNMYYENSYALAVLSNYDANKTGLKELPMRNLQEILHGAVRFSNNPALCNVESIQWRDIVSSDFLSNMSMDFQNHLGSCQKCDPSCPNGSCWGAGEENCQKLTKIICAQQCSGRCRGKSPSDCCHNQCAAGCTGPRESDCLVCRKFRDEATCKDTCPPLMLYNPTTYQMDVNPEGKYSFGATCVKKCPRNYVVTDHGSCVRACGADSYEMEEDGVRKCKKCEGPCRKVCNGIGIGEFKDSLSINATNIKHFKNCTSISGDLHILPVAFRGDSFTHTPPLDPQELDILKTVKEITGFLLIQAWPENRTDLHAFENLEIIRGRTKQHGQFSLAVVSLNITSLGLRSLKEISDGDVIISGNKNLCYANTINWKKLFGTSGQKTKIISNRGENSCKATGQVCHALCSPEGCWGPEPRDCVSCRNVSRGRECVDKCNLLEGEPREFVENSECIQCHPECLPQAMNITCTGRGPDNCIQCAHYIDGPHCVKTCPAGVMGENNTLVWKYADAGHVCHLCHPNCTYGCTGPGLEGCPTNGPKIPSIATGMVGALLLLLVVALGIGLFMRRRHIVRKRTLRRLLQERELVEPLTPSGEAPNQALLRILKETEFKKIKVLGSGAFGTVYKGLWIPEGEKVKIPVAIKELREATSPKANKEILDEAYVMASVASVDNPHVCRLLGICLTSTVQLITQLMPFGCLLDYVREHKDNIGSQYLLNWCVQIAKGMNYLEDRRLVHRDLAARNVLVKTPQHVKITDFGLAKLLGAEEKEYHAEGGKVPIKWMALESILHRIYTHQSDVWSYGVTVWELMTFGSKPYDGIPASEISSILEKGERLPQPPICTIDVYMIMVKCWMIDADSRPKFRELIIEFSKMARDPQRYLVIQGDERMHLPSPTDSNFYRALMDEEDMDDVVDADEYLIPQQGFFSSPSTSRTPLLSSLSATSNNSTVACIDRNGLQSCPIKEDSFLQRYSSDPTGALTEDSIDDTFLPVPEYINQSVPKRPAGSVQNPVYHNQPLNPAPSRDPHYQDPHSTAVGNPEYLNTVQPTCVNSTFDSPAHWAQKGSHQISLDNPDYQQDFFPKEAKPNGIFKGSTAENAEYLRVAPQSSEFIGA
T4 sequence (P00533 with tags, fused parts or gaps DUP768-770): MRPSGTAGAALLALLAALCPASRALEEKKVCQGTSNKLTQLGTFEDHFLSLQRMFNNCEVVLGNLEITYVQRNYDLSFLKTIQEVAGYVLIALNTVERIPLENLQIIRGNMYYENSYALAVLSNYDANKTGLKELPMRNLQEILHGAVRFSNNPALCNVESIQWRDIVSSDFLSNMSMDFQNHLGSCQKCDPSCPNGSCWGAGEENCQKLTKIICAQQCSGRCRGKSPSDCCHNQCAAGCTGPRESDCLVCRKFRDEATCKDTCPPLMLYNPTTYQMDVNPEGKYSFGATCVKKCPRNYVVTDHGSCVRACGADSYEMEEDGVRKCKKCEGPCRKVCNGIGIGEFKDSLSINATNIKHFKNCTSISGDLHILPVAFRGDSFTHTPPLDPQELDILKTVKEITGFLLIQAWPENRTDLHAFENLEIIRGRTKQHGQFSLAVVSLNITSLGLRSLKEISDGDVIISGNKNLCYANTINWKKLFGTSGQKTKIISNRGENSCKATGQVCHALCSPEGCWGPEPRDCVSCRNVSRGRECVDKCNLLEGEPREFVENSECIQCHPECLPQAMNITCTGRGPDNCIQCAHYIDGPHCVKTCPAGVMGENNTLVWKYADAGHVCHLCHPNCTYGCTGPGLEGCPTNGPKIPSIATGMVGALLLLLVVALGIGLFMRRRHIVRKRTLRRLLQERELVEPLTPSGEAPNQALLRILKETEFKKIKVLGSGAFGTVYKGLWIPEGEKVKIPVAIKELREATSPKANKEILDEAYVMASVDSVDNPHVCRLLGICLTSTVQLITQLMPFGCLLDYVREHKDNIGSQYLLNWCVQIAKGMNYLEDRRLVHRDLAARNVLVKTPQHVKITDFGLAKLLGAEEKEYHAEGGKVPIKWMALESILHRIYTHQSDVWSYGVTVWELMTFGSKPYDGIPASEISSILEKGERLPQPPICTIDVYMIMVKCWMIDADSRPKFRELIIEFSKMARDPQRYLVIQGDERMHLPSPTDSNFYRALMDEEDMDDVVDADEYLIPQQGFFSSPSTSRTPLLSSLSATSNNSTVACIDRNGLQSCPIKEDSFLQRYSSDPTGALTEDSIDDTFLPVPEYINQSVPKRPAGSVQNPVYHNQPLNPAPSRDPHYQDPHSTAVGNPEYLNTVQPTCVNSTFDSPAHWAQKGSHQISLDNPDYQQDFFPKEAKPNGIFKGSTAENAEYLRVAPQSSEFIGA
T2 sequence (P00533 whole entry T790M/L858R): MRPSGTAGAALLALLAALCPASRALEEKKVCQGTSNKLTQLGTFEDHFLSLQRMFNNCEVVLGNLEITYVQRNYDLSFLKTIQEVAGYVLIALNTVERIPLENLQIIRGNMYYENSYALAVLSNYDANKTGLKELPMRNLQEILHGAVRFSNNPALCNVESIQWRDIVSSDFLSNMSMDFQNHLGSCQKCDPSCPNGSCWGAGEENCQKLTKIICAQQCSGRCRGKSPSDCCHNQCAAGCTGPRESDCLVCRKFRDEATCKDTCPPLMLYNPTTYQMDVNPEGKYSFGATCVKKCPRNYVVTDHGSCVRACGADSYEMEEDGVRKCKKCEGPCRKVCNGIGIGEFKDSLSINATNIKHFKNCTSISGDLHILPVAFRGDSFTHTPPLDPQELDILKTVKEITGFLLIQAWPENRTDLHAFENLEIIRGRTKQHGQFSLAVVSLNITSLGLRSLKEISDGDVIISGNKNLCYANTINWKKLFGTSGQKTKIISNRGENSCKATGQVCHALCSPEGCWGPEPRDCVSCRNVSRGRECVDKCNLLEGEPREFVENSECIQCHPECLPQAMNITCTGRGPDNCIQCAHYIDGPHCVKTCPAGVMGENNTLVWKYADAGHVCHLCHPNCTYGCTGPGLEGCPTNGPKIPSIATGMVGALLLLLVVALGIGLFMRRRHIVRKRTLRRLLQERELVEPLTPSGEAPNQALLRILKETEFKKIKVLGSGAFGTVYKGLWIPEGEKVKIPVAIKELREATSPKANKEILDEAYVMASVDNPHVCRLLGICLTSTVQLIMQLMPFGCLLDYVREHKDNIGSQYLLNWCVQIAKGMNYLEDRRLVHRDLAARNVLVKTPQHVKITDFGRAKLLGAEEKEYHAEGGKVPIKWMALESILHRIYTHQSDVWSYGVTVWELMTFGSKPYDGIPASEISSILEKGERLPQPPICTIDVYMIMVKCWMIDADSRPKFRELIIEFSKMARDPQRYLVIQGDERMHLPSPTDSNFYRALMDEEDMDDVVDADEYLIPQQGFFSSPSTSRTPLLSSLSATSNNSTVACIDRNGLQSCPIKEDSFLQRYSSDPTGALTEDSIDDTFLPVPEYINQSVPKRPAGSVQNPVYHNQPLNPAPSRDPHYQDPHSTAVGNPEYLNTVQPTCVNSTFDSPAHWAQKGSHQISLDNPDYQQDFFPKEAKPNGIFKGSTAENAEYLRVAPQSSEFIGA
T5 sequence (P04626 with tags, fused parts or gaps DUP772-775): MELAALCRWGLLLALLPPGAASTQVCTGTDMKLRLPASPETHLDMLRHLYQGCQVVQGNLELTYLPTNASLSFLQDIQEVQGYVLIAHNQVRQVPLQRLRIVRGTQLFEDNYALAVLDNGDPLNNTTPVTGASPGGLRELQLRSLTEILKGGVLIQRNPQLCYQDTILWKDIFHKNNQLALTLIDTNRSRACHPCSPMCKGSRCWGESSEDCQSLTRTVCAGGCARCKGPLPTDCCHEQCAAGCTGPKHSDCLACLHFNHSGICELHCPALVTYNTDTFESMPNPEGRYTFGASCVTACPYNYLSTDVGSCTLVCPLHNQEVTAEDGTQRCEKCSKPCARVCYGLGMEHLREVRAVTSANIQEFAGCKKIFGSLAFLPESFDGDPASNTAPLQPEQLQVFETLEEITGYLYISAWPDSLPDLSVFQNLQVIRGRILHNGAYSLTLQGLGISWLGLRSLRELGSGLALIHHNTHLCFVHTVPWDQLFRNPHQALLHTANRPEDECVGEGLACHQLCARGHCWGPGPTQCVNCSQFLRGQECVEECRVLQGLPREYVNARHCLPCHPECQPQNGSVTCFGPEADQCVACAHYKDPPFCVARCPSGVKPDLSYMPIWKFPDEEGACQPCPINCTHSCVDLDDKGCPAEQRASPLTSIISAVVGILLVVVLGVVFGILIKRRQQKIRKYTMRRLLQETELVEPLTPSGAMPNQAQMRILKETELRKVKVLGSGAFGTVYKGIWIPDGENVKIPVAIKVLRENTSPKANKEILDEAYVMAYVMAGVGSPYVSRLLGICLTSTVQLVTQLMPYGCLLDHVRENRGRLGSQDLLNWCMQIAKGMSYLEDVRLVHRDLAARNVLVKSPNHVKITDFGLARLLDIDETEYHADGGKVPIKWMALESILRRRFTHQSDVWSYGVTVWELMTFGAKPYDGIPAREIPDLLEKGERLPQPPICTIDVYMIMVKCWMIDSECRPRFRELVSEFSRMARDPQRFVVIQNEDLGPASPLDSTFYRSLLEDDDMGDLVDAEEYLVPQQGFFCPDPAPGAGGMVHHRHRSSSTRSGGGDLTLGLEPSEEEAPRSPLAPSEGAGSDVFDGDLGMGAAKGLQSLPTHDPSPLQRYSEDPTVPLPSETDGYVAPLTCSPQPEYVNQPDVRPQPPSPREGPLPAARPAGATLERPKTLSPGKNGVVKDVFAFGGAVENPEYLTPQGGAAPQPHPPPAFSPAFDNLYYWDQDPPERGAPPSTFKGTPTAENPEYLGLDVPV

| SMILES | EC50 [1] [nM] | EC50 [2] [nM] | EC50 [3] [nM] | EC50 [4] [nM] | EC50 [5] [nM] | EC50 [6] [nM] |
| --- | --- | --- | --- | --- | --- | --- |
| C=CC(=O)N1CCC(Oc2c(OC)cc3ncnc(Nc4ccc(Cl)c(Cl)c4F)c3c2[N+](=O)[O-])CC1 [Compound 208, 1-(4-((4-((3,4-dichloro-2-fluorophenyl)amino)-7-methoxy-5-nitroquinazolin-6-yl)oxy)piperidin-1-yl)prop-2-en-1-one] | 200 to 1000 | > 1000 | > 1000 | > 1000 | > 1000 | > 1000 |
| C=CS(=O)(=O)N1CCC(Oc2c(OC)cc3ncnc4c3c2NC(=O)N4c2ccc(Cl)c(Cl)c2F)CC1 [Compound 225, 3-(3,4-dichloro-2-fluorophenyl)-8-methoxy-9-((1-(vinylsulfonyl)piperidin-4-yl)oxy)-1H-pyrimido[4,5,6-de]quinazolin-2(3H)-one] | ≤ 200 | ≤ 200 | ≤ 200 | ≤ 200 | > 1000 | ≤ 200 |
| C=CS(=O)(=O)N1CCC(Oc2c(OC)cc3ncnc4c3c2NC(=O)N4c2ccc(Cl)c(Cl)c2)CC1 [Compound 226, 3-(3,4-dichlorophenyl)-8-methoxy-9-((1-(vinylsulfonyl)piperidin-4-yl)oxy)-1H-pyrimido[4,5,6-de]quinazolin-2(3H)-one] | ≤ 200 | ≤ 200 | 200 to 1000 | 200 to 1000 | ≤ 200 | ≤ 200 |
| C#CC(=O)N1CCC(Oc2c(OC)cc3ncnc4c3c2NC(=O)N4c2ccc(Cl)c(Cl)c2)CC1 [Compound 227, 3-(3,4-dichlorophenyl)-8-methoxy-9-((1-propioloylpiperidin-4-yl)oxy)-1H-pyrimido[4,5,6-de]quinazolin-2(3H)-one] | ≤ 200 | ≤ 200 | 200 to 1000 | 200 to 1000 | 200 to 1000 | ≤ 200 |
| C=CC(=O)NC1COc2c(-c3cnc4ccccc4c3)c3c(N)ncnc3n2C1 (stereo not drawn) [Compound 228, N-(4-amino-5-(quinolin-3-yl)-8,9-dihydro-7H-pyrimido[5′,4′:4,5]pyrrolo[2,1-b][1,3]oxazin-8-yl)acrylamide] | ≤ 200 | ≤ 200 | 200 to 1000 | > 1000 | > 1000 | > 1000 |

The remaining lines, values ahead:

| EC50 [1] [nM] | EC50 [2] [nM] | EC50 [3] [nM] | EC50 [4] [nM] | EC50 [5] [nM] | EC50 [6] [nM] | SMILES |
| --- | --- | --- | --- | --- | --- | --- |
| ≤ 200 | > 1000 | > 1000 | > 1000 | > 1000 | > 1000 | C=CC(=O)N1CCC(Oc2c(OC)cc3ncnc4c3c2NC(=O)N4c2ccc(Cl)c(Cl)c2)CC1 [Compound 215, 9-((1-acryloylpiperidin-4-yl)oxy)-3-(3,4-dichlorophenyl)-8-methoxy-1H-pyrimido[4,5,6-de]quinazolin-2(3H)-one] |
| ≤ 200 | ≤ 200 | ≤ 200 | ≤ 200 | > 1000 | ≤ 200 | C=CC(=O)N1CC(Oc2c(OC)cc3ncnc4c3c2NC(=O)N4c2ccc(Cl)c(Cl)c2F)C1 [Compound 216, 9-((1-acryloylazetidin-3-yl)oxy)-3-(3,4-dichloro-2-fluorophenyl)-8-methoxy-1H-pyrimido[4,5,6-de]quinazolin-2(3H)-one] |
| ≤ 200 | 200 to 1000 | ≤ 200 | 200 to 1000 | > 1000 | 200 to 1000 | C=CC(=O)N1CCC(Oc2c(OC)cc3ncnc4c3c2C=C(C)N4c2ccc(Cl)c(Cl)c2F)CC1 [Compound 217, 1-(4-((4-(3,4-dichloro-2-fluorophenyl)-8-methoxy-5-methyl-4H-pyrido[2,3,4-de]quinazolin-7-yl)oxy)piperidin-1yl)prop-2-en-1-one] |
| ≤ 200 | 200 to 1000 | ≤ 200 | 200 to 1000 | > 1000 | ≤ 200 | C=CC(=O)N1CCC(Oc2c(OC)cc3ncnc4c3c2C=CN4c2ccc(Cl)c(Cl)c2F)CC1 [Compound 218, 1-(4-((4-(3,4-dichloro-2-fluorophenyl)-8-methoxy-4H-pyrido[2,3,4-de]quinazolin-7-yl)oxy)piperidin-1-yl)prop-2-en-1-one] |
